Source: ChEMBL document CHEMBL1157518, “New trypanocidal hybrid compounds from the association of hydrazone moieties and benzofuroxan heterocycle” (Bioorg Med Chem, 2008)

Columns and labels:
[1] = target: Trypanothione reductase (Trypanosoma cruzi) (UniProt P28593); assay: Inhibition of Trypanosoma cruzi recombinant trypanothione reductase at 40 uM by spectrophotometry
Trypanosoma cruzi [2] = assay: Antitrypanosomal activity against epimastigotes of Trypanosoma cruzi Tulahuen 2 at 25 uM relative to control; assay type: functional; conditions: read-out: GI
[3] = target: Trypanothione reductase (Trypanosoma cruzi) (UniProt P28593); assay: Inhibition of Trypanosoma cruzi recombinant trypanothione reductase at 100 uM by spectrophotometry
Cruzipain = Cruzipain (Trypanosoma cruzi, UniProt P25779); assay: Inhibition of Trypanosoma cruzi Tulahuen 2 epimastigote cruzipain by spectrophotometry
[4] = target: Cruzipain (Trypanosoma cruzi) (UniProt P25779); assay: Inhibition of Trypanosoma cruzi Tulahuen 2 epimastigote cruzipain at 100 uM by spectrophotometry
Trypanosoma cruzi [5] = assay: Antitrypanosomal activity against epimastigotes of Trypanosoma cruzi Tulahuen 2; assay type: functional, organism-based
[6] = target: Trypanothione reductase (Trypanosoma cruzi) (UniProt P28593); assay: Inhibition of Trypanosoma cruzi recombinant trypanothione reductase at […] by spectrophotometry
J774 = assay: Cytotoxicity against mouse J774 cells after 48 hrs by MTT assay; assay type: cell-based; conditions: J774, 48 h
[7] = Selectivity index, ratio of IC50 for mouse J774 cells to IC50 for epimastigotes of Trypanosoma cruzi Tulahuen 2; assay type: toxicity, cell-based; conditions: read-out: Ratio IC50
Trypanosoma cruzi [8] = assay: Antitrypanosomal activity against epimastigotes of Trypanosoma cruzi CL Brener; assay type: functional, organism-based

Cruzipain (Trypanosoma cruzi), sequence (P25779 123-467 limits assumed): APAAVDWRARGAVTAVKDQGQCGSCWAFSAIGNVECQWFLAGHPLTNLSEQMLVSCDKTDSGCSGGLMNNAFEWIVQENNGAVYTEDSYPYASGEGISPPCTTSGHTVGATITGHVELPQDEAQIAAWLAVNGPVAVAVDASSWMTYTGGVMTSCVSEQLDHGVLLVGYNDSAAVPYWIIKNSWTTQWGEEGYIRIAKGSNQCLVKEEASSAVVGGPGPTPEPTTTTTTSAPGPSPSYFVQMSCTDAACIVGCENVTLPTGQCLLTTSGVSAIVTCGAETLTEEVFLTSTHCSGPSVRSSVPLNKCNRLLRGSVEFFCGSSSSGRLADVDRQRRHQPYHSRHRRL
Cruzipain, sequence (P25779 whole entry): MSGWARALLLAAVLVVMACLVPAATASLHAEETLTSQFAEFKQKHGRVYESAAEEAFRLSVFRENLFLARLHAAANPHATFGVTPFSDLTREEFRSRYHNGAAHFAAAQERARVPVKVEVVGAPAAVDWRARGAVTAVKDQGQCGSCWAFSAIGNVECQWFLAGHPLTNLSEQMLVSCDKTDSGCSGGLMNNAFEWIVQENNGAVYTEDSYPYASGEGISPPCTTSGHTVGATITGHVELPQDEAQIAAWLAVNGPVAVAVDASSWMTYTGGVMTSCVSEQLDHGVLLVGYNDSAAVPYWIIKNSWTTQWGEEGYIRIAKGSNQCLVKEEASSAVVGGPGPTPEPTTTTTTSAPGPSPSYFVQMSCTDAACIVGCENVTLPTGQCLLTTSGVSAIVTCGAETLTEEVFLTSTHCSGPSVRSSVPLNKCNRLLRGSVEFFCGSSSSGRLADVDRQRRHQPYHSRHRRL
Trypanothione reductase (Trypanosoma cruzi), sequence (P28593 whole entry, looked up): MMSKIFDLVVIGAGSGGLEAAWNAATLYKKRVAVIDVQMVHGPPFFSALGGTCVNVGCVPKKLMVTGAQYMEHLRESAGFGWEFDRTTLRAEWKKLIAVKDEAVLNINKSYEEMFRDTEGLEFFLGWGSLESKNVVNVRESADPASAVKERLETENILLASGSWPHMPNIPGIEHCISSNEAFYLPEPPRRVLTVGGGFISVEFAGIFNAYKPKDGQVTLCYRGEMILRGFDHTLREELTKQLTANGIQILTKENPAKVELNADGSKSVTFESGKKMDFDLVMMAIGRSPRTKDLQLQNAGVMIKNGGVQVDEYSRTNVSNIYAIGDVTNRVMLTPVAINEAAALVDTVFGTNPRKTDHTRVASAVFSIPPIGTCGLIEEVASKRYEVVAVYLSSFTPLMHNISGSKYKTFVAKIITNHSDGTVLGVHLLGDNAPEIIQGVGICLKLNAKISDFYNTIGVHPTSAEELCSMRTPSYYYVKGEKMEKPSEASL

inhibition [1] | inhibition [3] | IC50 (Cruzipain) | inhibition [4] | IC50 (Trypanosoma cruzi [5]) | inhibition [6] | IC50 (Trypanosoma cruzi [8]) | SMILES | inhibition of growth at 25 µM (Trypanosoma cruzi [2]) | IC50 (J774) | selectivity ratio [7]
13% | 9% | > 100 µM | 36% | > 25 µM |  |  | C=CCNC(=S)N/N=C/c1ccc2no[n+]([O-])c2c1 | 35% |  | 
 |  |  |  |  |  |  | CC1CS(=O)(=O)CCN1/N=C/c1ccc([N+](=O)[O-])o1 (centres undefined) [NIFURTIMOX] | 100% |  | 
 |  | 100 µM |  | 25 µM |  |  | [O-][n+]1onc2ccc(/C=N/N=C/c3ccc(O)cc3)cc21 | 52% |  | 
 | 0% | > 100 µM | 23% | > 25 µM | 0% |  | NC(=O)N/N=C/c1ccc(OCc2ccc3no[n+]([O-])c3c2)cc1 | 25% |  | 
 |  | 68 µM |  | > 25 µM |  |  | [O-][n+]1onc2ccc(/C=N/N=C/c3ccccc3O)cc21 | 17% |  | 
 |  |  |  |  |  |  | CC(=O)N1CCN(c2ccc(OCC3COC(Cn4ccnc4)(c4ccc(Cl)cc4Cl)O3)cc2)CC1 (centres undefined) [KETOCONAZOLE] | 100% | < 50 µM | < 5
30% | 50% | 32 µM |  | > 25 µM |  | 38.2 µM | N=C(N)N/N=C/c1ccc(OCc2ccc3no[n+]([O-])c3c2)cc1 | 40% | < 50 µM | < 2
 |  |  |  |  |  |  | CN(C/C=C/C#CC(C)(C)C)Cc1cccc2ccccc12 [TERBINAFINE] | 100% |  | 5.1
 |  |  |  |  |  |  | O=C(Cn1ccnc1[N+](=O)[O-])NCc1ccccc1 [BENZNIDAZOLE] | 100% |  | 
 | 19% |  |  | 8.7 µM |  |  | O=Cc1ccc(OCc2ccc3no[n+]([O-])c3c2)cc1 | 98% | 60 µM | 6.9
 | 19% |  |  | 6.8 µM |  |  | N=C(N/N=C/c1ccc(O)cc1)SCc1ccc2no[n+]([O-])c2c1 | 100% | 142 µM | 20.9
 | 0% | 78 µM |  | 8.9 µM | 0% | 2.6 µM | [O-][n+]1onc2ccc(/C=N/NC(=S)Nc3ccccc3)cc21 | 93% | < 50 µM | < 5.6
9% | 19% | > 100 µM | 7% | > 25 µM |  |  | NC(=S)N/N=C/c1ccc2no[n+]([O-])c2c1 | 5% |  | 
 |  | 73 µM |  | 25 µM |  |  | [O-][n+]1onc2ccc(/C=N/N=C/c3cc(Br)ccc3O)cc21 | 48% | 84 µM | < 3.4
 | 0% | 43 µM |  |  | 0% | 19.8 µM | NC(=S)N/N=C/c1ccc(OCc2ccc3no[n+]([O-])c3c2)cc1 | 70% | 400 µM | 26.7
